Data: patent publication US20230405130A1, “COMPOSITIONS AND METHODS FOR MODIFYING BACTERIAL GENE EXPRESSION” (priority 2020, published 2023)

Key:
[1] = test system: dnaE; experiment: dnaE expression after anti-dnaE oligonucleotide treatment (immunoblotting); assay type: cell-based, C. difficile; conditions: FIG. 2
Experimental: Studies were performed to identify C. difficile gene targets with the least pathway redundancy, while ensuring ASO specificity (oligonucleotides ≥25 bp in length). […] Five candidate C. difficile gene targets were identified, and dnaE (which encodes the alpha subunit of DNA polymerase III, and is invariant in C. difficile strains) harbored the most favorable translation inhibition potential (confirmed via immunoblotting; FIG. 2). Thus, it was used in further experiments. Specifically, the ASO formulation is a 2′-O-methyl phosphorothioate (PTO) gapmer, which has a good safety record (Shen et al., Antisense Nucleic Acid Drug Dev. 2001 August; 11(4):257-64; Chen et al., Transplantation. 2005 Feb. 27; 79(4):401-8; Nomura et al., Int J Pharm. 2018 Aug. 25; 547(1-2):556-562.).

[2] = Water solubility; assay type: physicochemical; conditions: room temperature
[3] = test system: Ribotype 027 C. difficile strain; experiment: In vitro anti-C. difficile activity / MIC; assay type: cell-based; conditions: FIG. 3 legend
Experimental: (§1) Nanocomplex CAB-964 was complexed to the anti-dnaE ASO (SEQ ID NO:1) as previously described (Hegarty et al., Int J Nanomedicine. 2016 Aug. 1; 11:3607-19; Sharma et al., J Antibiot (Tokyo). 2018 August; 71(8):713-721; herein incorporated by reference in its entirety) and the resulting nanocomplex is called SRPNT. Multiple in vitro tests were performed with SRPNT as well as its parent empty CAB, with CAB CYDE-21 and its derived nanocomplex as comparators. For the pathogen (Hegarty 2016, supra; Sharma 2018, supra) a whole genome-sequenced Ribotype 027 C. difficile strain associated with severe, complicated CDI in human subjects was used.

[4] = test system: E. coli; experiment: In vitro growth of commensal bacteria: E. coli; assay type: cell-based; conditions: only at >17× the dosing range to treat C. difficile
Experimental: as §1

[5] = test system: B. fragilis; experiment: In vitro growth of commensal bacteria: B. fragilis; assay type: cell-based; conditions: only at >17× the dosing range to treat C. difficile
Experimental: as §1

[6] = test system: E. faecalis; experiment: In vitro growth of commensal bacteria: E. faecalis; assay type: cell-based; conditions: only at >17× the dosing range to treat C. difficile
Experimental: as §1

[7] = test system: cultured human intestinal epithelial cells; experiment: Toxicity to cultured human intestinal epithelial cells; assay type: cell-based; conditions: at the doses used for C. difficile inhibition

Compound	dnaE expression [1]	solubility [2]	anti-C. difficile activity [3]	growth reduction of E. coli [4]	growth reduction of B. fragilis [5]	growth reduction of E. faecalis [6]	toxicity to cultured human intestinal epithelial cells [7]
5′-G*T*T*C*A*T*TAAA TCACC TCC T*G*C*T*T*T*A3′ (GTTCATTAAATCACCTCCTGCTTT; listed as DNA, chemistry not fully specified) [anti-dnaE oligonucleotide, 2′-O-methyl phosphorothioate (PTO) gapmer ASO targeting dnaE]	decreases dnaE expression						
c1cc2c([n+](CCCCCCCCCC[n+]3cccc4c3CCCC4)c1)CCCC2 [CAB-964]		26 mg/mL	no anti-C. difficile activity	7%	7%	7%	non-toxic
